# Measurements taken from ChEMBL document CHEMBL5724914, “Linking interpersonal differences in gut microbiota composition and drug biotransformation activity” (2024).
# Tests used:
# [1] = human gut metagenome, 24 h, 2 µM
# [2] = (§1) The drug is tested on WLS-220 corresponding to human gut metagenome with ENA study accession number: PRJEB37062 and ENA sample accession number: ERS12561769 for biotransformation under anaerobic condition. The drug concentrations were measured over 9 timepoints collected between 0 and 24 hours of incubation by liquid-chromatography-coupled mass spectrometry (LC–MS); details: 2 µM
# [3] = human gut metagenome, 24 h, 2 µM; remark: listed apart in the source
# [4] = as §1, with “Z-021” for “WLS-220”, “to” for “to human gut”, “ERS12561820” for “ERS12561769”; details: 2 µM
# [5] = human gut metagenome, 24 h, 2 µM; remark: listed apart in the source
# [6] = as §1, with “Z-007” for “WLS-220”, “rat” for “human”, “ERS12561807” for “ERS12561769”; details: 2 µM
# [7] = as §1, with “WLS-310” for “WLS-220”, “ERS12561785” for “ERS12561769”; details: 2 µM
# [8] = human gut metagenome, 24 h, 2 µM; remark: listed apart in the source
# [9] = as §1, with “Z-024” for “WLS-220”, “pig” for “human”, “ERS12561823” for “ERS12561769”; details: 2 µM
# [10] = as §1, with “WLS-006” for “WLS-220”, “ERS12561741” for “ERS12561769”; details: 2 µM
# [11] = human gut metagenome, 24 h, 2 µM; remark: listed apart in the source
# [12] = as §1, with “Z-025” for “WLS-220”, “rabbit” for “human”, “ERS12561824” for “ERS12561769”; details: 2 µM
# [13] = human gut metagenome, 24 h, 2 µM; remark: listed apart in the source
# [14] = as §1, with “Z-003” for “WLS-220”, “pig” for “human”, “ERS12561803” for “ERS12561769”; details: 2 µM
# [15] = as §1, with “Z-018” for “WLS-220”, “pig” for “human”, “ERS12561817” for “ERS12561769”; details: 2 µM
# [16] = human gut metagenome, 24 h, 2 µM; remark: listed apart in the source
# [17] = human gut metagenome, 24 h, 2 µM; remark: listed apart in the source
# [18] = as §1, with “Z-001” for “WLS-220”, “mouse” for “human”, “ERS12561801” for “ERS12561769”; details: 2 µM
# [19] = as §1, with “WLS-350” for “WLS-220”, “ERS12561789” for “ERS12561769”; details: 2 µM
# [20] = human gut metagenome, 24 h, 2 µM; remark: listed apart in the source
# Also: call rule not given here.
SMILES,Bacterial Biotransformation [1],Bacterial Biotransformation [2],Bacterial Biotransformation [3],Bacterial Biotransformation [4],Bacterial Biotransformation [5],Bacterial Biotransformation [6],Bacterial Biotransformation [7],Bacterial Biotransformation [8],Bacterial Biotransformation [9],Bacterial Biotransformation [10],Bacterial Biotransformation [11],Bacterial Biotransformation [12],Bacterial Biotransformation [13],Bacterial Biotransformation [14],Bacterial Biotransformation [15],Bacterial Biotransformation [16],Bacterial Biotransformation [17],Bacterial Biotransformation [18],Bacterial Biotransformation [19],Bacterial Biotransformation [20]
CCN(CC)C(=O)C1(c2ccccc2)CC1CN (stereo not given),Compound NOT metabolized,Compound NOT metabolized,Compound NOT metabolized,Compound NOT metabolized,Compound NOT metabolized,Compound NOT metabolized,Compound NOT metabolized,Compound NOT metabolized,Compound NOT metabolized,Compound NOT metabolized,Compound NOT metabolized,Compound NOT metabolized,Compound NOT metabolized,Compound NOT metabolized,Compound NOT metabolized,Compound NOT metabolized,Compound NOT metabolized,Compound NOT metabolized,Compound NOT metabolized,Compound NOT metabolized
Nc1nc(NC2CC2)c2ncn([C@H]3C=C[C@@H](CO)C3)c2n1.Nc1nc(NC2CC2)c2ncn([C@H]3C=C[C@@H](CO)C3)c2n1.O=S(=O)(O)O [ABACAVIR SULFATE],Compound metabolized,Compound metabolized,Compound metabolized,Compound NOT metabolized,Compound NOT metabolized,Compound NOT metabolized,Compound NOT metabolized,Compound metabolized,Compound NOT metabolized,Compound metabolized,Compound metabolized,Compound NOT metabolized,Compound metabolized,Compound NOT metabolized,Compound NOT metabolized,Compound NOT metabolized,Compound NOT metabolized,Compound NOT metabolized,Compound metabolized,Compound NOT metabolized
CCN(CC)CCNC(=O)c1ccc(NC(C)=O)cc1 [ACECAINIDE],Compound metabolized,Compound NOT metabolized,Compound NOT metabolized,Compound NOT metabolized,Compound NOT metabolized,Compound NOT metabolized,Compound metabolized,Compound metabolized,Compound NOT metabolized,Compound NOT metabolized,Compound metabolized,Compound NOT metabolized,Compound metabolized,Compound NOT metabolized,Compound NOT metabolized,Compound NOT metabolized,Compound NOT metabolized,Compound NOT metabolized,Compound NOT metabolized,Compound NOT metabolized
O=C1CN2Cc3c(ccc(Cl)c3Cl)N=C2N1 [ANAGRELIDE],Compound metabolized,Compound metabolized,Compound NOT metabolized,Compound NOT metabolized,Compound NOT metabolized,Compound NOT metabolized,Compound metabolized,Compound NOT metabolized,Compound metabolized,Compound metabolized,Compound metabolized,Compound NOT metabolized,Compound metabolized,Compound NOT metabolized,Compound NOT metabolized,Compound metabolized,Compound NOT metabolized,Compound NOT metabolized,Compound NOT metabolized,Compound NOT metabolized
CN(C)C(=O)Oc1cc(OC(=O)N(C)C)cc(C(O)CNC(C)(C)C)c1 (stereo not given) [BAMBUTEROL],Compound metabolized,Compound metabolized,Compound NOT metabolized,Compound metabolized,Compound metabolized,Compound NOT metabolized,Compound metabolized,Compound NOT metabolized,Compound NOT metabolized,Compound metabolized,Compound metabolized,Compound metabolized,Compound NOT metabolized,Compound NOT metabolized,Compound NOT metabolized,Compound metabolized,Compound NOT metabolized,Compound metabolized,Compound metabolized,Compound metabolized
CCc1oc2ccccc2c1C(=O)c1cc(Br)c(O)c(Br)c1 [BENZBROMARONE],Compound metabolized,Compound metabolized,Compound NOT metabolized,Compound NOT metabolized,Compound metabolized,Compound NOT metabolized,Compound metabolized,Compound metabolized,Compound NOT metabolized,Compound metabolized,Compound metabolized,Compound NOT metabolized,Compound metabolized,Compound metabolized,Compound metabolized,Compound metabolized,Compound NOT metabolized,Compound NOT metabolized,Compound NOT metabolized,Compound NOT metabolized
CC(NC(C)(C)C)C(=O)c1cccc(Cl)c1 (stereo not given) [BUPROPION],Compound metabolized,Compound NOT metabolized,Compound NOT metabolized,Compound NOT metabolized,Compound NOT metabolized,Compound NOT metabolized,Compound NOT metabolized,Compound NOT metabolized,Compound NOT metabolized,Compound metabolized,Compound NOT metabolized,Compound NOT metabolized,Compound metabolized,Compound NOT metabolized,Compound metabolized,Compound NOT metabolized,Compound NOT metabolized,Compound NOT metabolized,Compound NOT metabolized,Compound NOT metabolized
O=C1CC2(CCCC2)CC(=O)N1CCCCN1CCN(c2ncccn2)CC1 [BUSPIRONE],Compound metabolized,Compound NOT metabolized,Compound NOT metabolized,Compound NOT metabolized,Compound NOT metabolized,Compound NOT metabolized,Compound metabolized,Compound metabolized,Compound NOT metabolized,Compound NOT metabolized,Compound metabolized,Compound NOT metabolized,Compound metabolized,Compound metabolized,Compound NOT metabolized,Compound NOT metabolized,Compound metabolized,Compound NOT metabolized,Compound metabolized,Compound NOT metabolized
